Data set [1] has as its system Podosphaera xanthii. In words: Fungicidal activity against Podosphaera xanthii (powdery mildew) inoculated in squash (Cucurbita pepo) rootstock seedlings continuously after first drug application assessed as disease severity at 22.58% in 0.47ml/L applied thrice at 5-days intervals measured 5 days after third application under green house conditions (water Rvb = 3.9%). The data set is classed as functional.

The test system of data set [2] is Lagenaria siceraria. In words: Phytotoxicity against Lagenaria siceraria 'Emphasis' rootstock seedlings assessed as severe chlorosis or necrosis on cotyledons. The data set is classed as organism-based. The settings on record: in vivo.
Data set [3] has as its system Cucurbita maxima x Cucurbita moschata. In words: Phytotoxicity against inter-specific squash hybrid Cucurbita moschata x Cucurbita maxima (Strong tosa) rootstock seedlings assessed as severe chlorosis or necrosis on cotyledons. The conditions noted are these: in vivo. Format: organism-based.
Data set [4] deals with Podosphaera xanthii. In words: Fungicidal activity against Podosphaera xanthii (powdery mildew) inoculated in squash (Cucurbita pepo) rootstock seedlings continuously after first drug application assessed as incidence of disease symptoms on hypocotyls or upper or lower sides of cotyledons at 22.58% in 0.47ml/L applied thrice at 5-days intervals measured 5 days after third application under green house conditions (water Rvb = …. The data set is classed as functional.

Data set [5] relates to Podosphaera xanthii. In words: Fungicidal activity against Podosphaera xanthii (powdery mildew) inoculated in inter-specific squash hybrid Strong tosa (Cucurbita moschata x Cucurbita maxima) rootstock seedlings for 7 days prior to drug application assessed as disease severity on lower surface areas of cotyledonsat 22.58% in 0.47ml/L applied once measured 7 days post-drug dose under greenhouse conditions (water Rvb = 5.1%). Format: functional.

Data set [6] has as its system Podosphaera xanthii. In words: Fungicidal activity against Podosphaera xanthii (powdery mildew) inoculated in inter-specific squash hybrid Strong tosa (Cucurbita moschata x Cucurbita maxima) rootstock seedlings for 7 days prior to drug application assessed as disease severity on upper surface areas of cotyledonsat 22.58% in 0.47ml/L applied once measured 7 days post-drug dose under greenhouse conditions (water Rvb = 10.2%). The data set is classed as functional.

Data set [7] relates to Podosphaera xanthii. In words: Fungicidal activity against Podosphaera xanthii (powdery mildew) inoculated in inter-specific squash hybrid Strong tosa (Cucurbita moschata x Cucurbita maxima) rootstock seedlings for 7 days prior to drug application assessed as disease severity at 22.58% in 0.47ml/L applied once measured 7 days post-drug dose under greenhouse conditions (water Rvb = 17.5%). Format: functional.

Data set [8] has as its system Podosphaera xanthii. In words: Fungicidal activity against Podosphaera xanthii (powdery mildew) inoculated in inter-specific squash hybrid Strong tosa (Cucurbita moschata x Cucurbita maxima) rootstock seedlings for 7 days prior to drug application assessed as incidence of disease symptoms on hypocotyls or upper or lower sides of cotyledons at 22.58% in 0.47ml/L applied once measured 7 days post-drug dose under greenhouse …. The data set is classed as functional.

In data set [9] the test system is Podosphaera xanthii. In words: Fungicidal activity against Podosphaera xanthii (powdery mildew) inoculated in inter-specific squash hybrid Strong tosa (Cucurbita moschata x Cucurbita maxima) rootstock seedlings for 7 days prior to drug application assessed as disease severity on upper surface areas of cotyledonsat 45% in 0.6 g/L applied once measured 7 days post-drug dose under greenhouse conditions (water Rvb = 10.2%). The data set is classed as functional.

The test system of data set [10] is Lagenaria siceraria. In words: Phytotoxicity against Lagenaria siceraria 'Emphasis' rootstock seedlings. Format: organism-based. The conditions noted are these: in vivo.
Data set [11] relates to Podosphaera xanthii. In words: Fungicidal activity against Podosphaera xanthii (powdery mildew) inoculated in squash (Cucurbita pepo) rootstock seedlings continuously after first drug application assessed as disease severity at 45% in 0.6 g/L applied thrice at 5-days intervals measured 5 days after third application under green house conditions (water Rvb = 3.9%). Format: functional.

For data set [12], the system named is Podosphaera xanthii. In words: Fungicidal activity against Podosphaera xanthii (powdery mildew) inoculated in inter-specific squash hybrid Strong tosa (Cucurbita moschata x Cucurbita maxima) rootstock seedlings for 7 days prior to drug application assessed as disease severity on lower surface areas of cotyledonsat 45% in 0.6 g/L applied once measured 7 days post-drug dose under greenhouse conditions (water rvb = 5.1%). Format: functional.

In data set [13] the test system is Podosphaera xanthii. In words: Fungicidal activity against Podosphaera xanthii (powdery mildew) inoculated in inter-specific squash hybrid Strong tosa (Cucurbita moschata x Cucurbita maxima) rootstock seedlings for 7 days prior to drug application assessed as disease severity at 45% in 0.6 g/L applied once measured 7 days post-drug dose under greenhouse conditions (water Rvb = 17.5%). Format: functional.

In data set [14] the test system is Cucurbita maxima x Cucurbita moschata. In words: Phytotoxicity against inter-specific squash hybrid Cucurbita moschata x Cucurbita maxima (Strong tosa) rootstock seedlings. The data set is classed as organism-based. The settings on record: in vivo.
Data set [15] concerns Podosphaera xanthii. In words: Fungicidal activity against Podosphaera xanthii (powdery mildew) inoculated in inter-specific squash hybrid Strong tosa (Cucurbita moschata x Cucurbita maxima) rootstock seedlings for 7 days prior to drug application assessed as incidence of disease symptoms on hypocotyls or upper or lower sides of cotyledons at 45% in 0.6 g/L applied once measured 7 days post-drug dose under greenhouse …. Format: functional.

Data set [16] has as its system Podosphaera xanthii. In words: Fungicidal activity against Podosphaera xanthii (powdery mildew) inoculated in squash (Cucurbita pepo) rootstock seedlings continuously after first drug application assessed as incidence of disease symptoms on hypocotyls or upper or lower sides of cotyledons at 45% in 0.6 g/L applied thrice at 5-days intervals measured 5 days after third application under green house conditions (water Rvb = …. The data set is classed as functional.

Data set [17] has as its system Podosphaera xanthii. In words: Fungicidal activity against Podosphaera xanthii (powdery mildew) inoculated in inter-specific squash hybrid Strong tosa (Cucurbita moschata x Cucurbita maxima) rootstock seedlings for 7 days prior to drug application assessed as incidence of disease symptoms on hypocotyls or upper or lower sides of cotyledons at 98.2% in 11.99 g/L applied once measured 7 days post-drug dose under greenhouse …. Format: functional.

In data set [18] the test system is Podosphaera xanthii. In words: Fungicidal activity against Podosphaera xanthii (powdery mildew) inoculated in Lagenaria siceraria Emphasis continuously after first drug application assessed as disease severity on lower surface areas of cotyledons at 98.2% in 11.99 g/L applied thrice at 5-days intervals measured 5 days after third application under green house conditions (water Rvb = 13.9%). The data set is classed as functional.

The test system of data set [19] is Podosphaera xanthii. In words: Fungicidal activity against Podosphaera xanthii (powdery mildew) inoculated in Lagenaria siceraria Emphasis continuously after first drug application assessed as disease severity on upper surface areas of cotyledons at 98.2% in 11.99 g/L applied thrice at 5-days intervals measured 5 days after third application under green house conditions (water Rvb = 36.8%). The data set is classed as functional.

Data set [20] has as its system Podosphaera xanthii. In words: Fungicidal activity against Podosphaera xanthii (powdery mildew) inoculated in inter-specific squash hybrid Strong tosa (Cucurbita moschata x Cucurbita maxima) rootstock seedlings for 7 days prior to drug application assessed as disease severity on upper surface areas of cotyledonsat 98.2% in 11.99 g/L applied once measured 7 days post-drug dose under greenhouse conditions (water Rvb = 10.2%). The data set is classed as functional.

The subject of data set [21] is Podosphaera xanthii. In words: Fungicidal activity against Podosphaera xanthii (powdery mildew) inoculated in squash (Cucurbita pepo) rootstock seedlings continuously after first drug application assessed as disease severity at 98.2% in 11.99 g/L applied thrice at 5-days intervals measured 5 days after third application under green house conditions (water Rvb = 3.9%). Format: functional.

For data set [22], the system named is Podosphaera xanthii. In words: Fungicidal activity against Podosphaera xanthii (powdery mildew) inoculated in inter-specific squash hybrid Strong tosa (Cucurbita moschata x Cucurbita maxima) rootstock seedlings for 7 days prior to drug application assessed as disease severity at 98.2% in 11.99 g/L applied once measured 7 days post-drug dose under greenhouse conditions (water Rvb = 17.5%). The data set is classed as functional.

Data set [23] concerns Podosphaera xanthii. In words: Fungicidal activity against Podosphaera xanthii (powdery mildew) inoculated in squash (Cucurbita pepo) rootstock seedlings continuously after first drug application assessed as incidence of disease symptoms on hypocotyls or upper or lower sides of cotyledons at 98.2% in 11.99 g/L applied thrice at 5-days intervals measured 5 days after third application under green house conditions (water Rvb = …. Format: functional.

Data set [24] has as its system Podosphaera xanthii. In words: Fungicidal activity against Podosphaera xanthii (powdery mildew) inoculated in inter-specific squash hybrid Strong tosa (Cucurbita moschata x Cucurbita maxima) rootstock seedlings for 7 days prior to drug application assessed as disease severity on lower surface areas of cotyledonsat 98.2% in 11.99 g/L applied once measured 7 days post-drug dose under greenhouse conditions (water Rvb = 5.1%). The data set is classed as functional.

Data set [25] relates to Podosphaera xanthii. In words: Fungicidal activity against Podosphaera xanthii (powdery mildew) inoculated in Lagenaria siceraria Emphasis continuously after first drug application assessed as incidence of disease symptoms on hypocotyls or upper or lower sides of cotyledons at 98.2% in 11.99 g/L applied thrice at 5-days intervals measured 5 days after third application under green house conditions (water Rvb = 100%). Format: functional.

Data set [26] has as its system Cucurbita maxima x Cucurbita moschata. In words: Phytotoxicity against inter-specific squash hybrid Cucurbita moschata x Cucurbita maxima (Strong tosa) rootstock seedlings assessed as stunting. Format: organism-based. The conditions noted are these: in vivo.
In data set [27] the test system is Podosphaera xanthii. In words: Fungicidal activity against Podosphaera xanthii (powdery mildew) inoculated in Lagenaria siceraria Emphasis continuously after first drug application assessed as disease severity at 98.2% in 11.99 g/L applied thrice at 5-days intervals measured 5 days after third application under green house conditions (water Rvb = 53.5%). The data set is classed as functional.

Data set [28] has as its system Lagenaria siceraria. In words: Phytotoxicity against Lagenaria siceraria 'Emphasis' rootstock seedlings assessed as stunting. Format: organism-based. The conditions noted are these: in vivo.

For the compound `Fc1ccc(Oc2ccnc3cc(Cl)cc(Cl)c23)cc1` [QUINOXYFEN], the Activity is listed as 0.43% in the data set on Podosphaera xanthii [1]; “Toxic” with Lagenaria siceraria [2]; “Toxic” in data set [3]; 23.4% in the data set on Podosphaera xanthii [4]; 0.3% in the data set on Podosphaera xanthii [5]; 1.2% with Podosphaera xanthii [6]. For the same compound, the results for the Activity with Podosphaera xanthii [7] and with Podosphaera xanthii [8] were 1.8% and 14.6%, respectively.
Regarding `COC(=O)NC(=S)Nc1ccccc1NC(=S)NC(=O)OC` [THIOPHANATE METHYL], the Activity in the data set on Podosphaera xanthii [9] is on record as 3.9%; in the data set on Lagenaria siceraria [10] it was “Non-toxic”; in the data set with Podosphaera xanthii [11], 3.2%; with Podosphaera xanthii [12], 3%; in the data set on Podosphaera xanthii [13], 7.4%; in data set [14], “Non-toxic”. The Activity with Podosphaera xanthii [15] came out at 85.4%; with Podosphaera xanthii [16], 90.8%.
Take `S1SSSSSSS1` [SULFUR]: the Activity in the data set on Podosphaera xanthii [17] was 14.6%; in the data set with Podosphaera xanthii [18], 0.7%; in the data set with Podosphaera xanthii [19] it was 3%; in the data set with Podosphaera xanthii [20], 0.03%; in the data set with Podosphaera xanthii [21] it was 0.02%; in the data set on Podosphaera xanthii [22], 0.9%. Moreover, the Activity in the data set with Podosphaera xanthii [23] is 0%; in the data set with Podosphaera xanthii [24], 0.7%; in the data set with Podosphaera xanthii [25], 34.9%; in the data set with Lagenaria siceraria [10] it was “Non-toxic”; in data set [26], “Non-toxic”; in data set [14], “Non-toxic”. For the same compound, the values for the Activity with Podosphaera xanthii [27] and in the data set on Lagenaria siceraria [28] were 3.7% and “Non-toxic”, respectively.
